Reference: PubChem BioAssay (NCI)
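Cultured in 96-well plates, cells were exposed to test compound for 48 hours across five concentrations. TGI marks complete inhibition of growth.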

Legend:
Assay in all cases: NCI anticancer screen, dose series, 48 h
CAKI-1 renal = test system: CAKI-1 renal
HOP-92 NSCLC = test system: HOP-92 NSCLC
U251 CNS = test system: U251 CNS
SK-MEL-2 melanoma = test system: SK-MEL-2 melanoma
NCI-H460 lung = test system: NCI-H460 lung
UO-31 renal = test system: UO-31 renal
CCRF-CEM leukemia = test system: CCRF-CEM leukemia
SNB-75 CNS = test system: SNB-75 CNS
MCF7 breast = test system: MCF7 breast
SF-539 CNS = test system: SF-539 CNS
K-562 leukemia = test system: K-562 leukemia
HL-60(TB) leukemia = test system: HL-60(TB) leukemia
UACC-257 melanoma = test system: UACC-257 melanoma
SR leukemia = test system: SR leukemia
MDA-N = test system: MDA-N
KM12 colon = test system: KM12 colon
OVCAR-4 ovarian = test system: OVCAR-4 ovarian
ACHN renal = test system: ACHN renal
HCC-2998 colon = test system: HCC-2998 colon
MALME-3M melanoma = test system: MALME-3M melanoma
A549 NSCLC = test system: A549 NSCLC
M14 melanoma = test system: M14 melanoma
LOX IMVI melanoma = test system: LOX IMVI melanoma
NCI-H226 lung = test system: NCI-H226 lung
NCI/ADR-RES ovarian = test system: NCI/ADR-RES ovarian
COLO 205 colon = test system: COLO 205 colon
IGROV1 ovarian = test system: IGROV1 ovarian
786-0 renal = test system: 786-0 renal
PC-3 prostate = test system: PC-3 prostate
SW-620 colon = test system: SW-620 colon
HT29 colon = test system: HT29 colon
HCT-15 colon = test system: HCT-15 colon
SK-MEL-28 melanoma = test system: SK-MEL-28 melanoma
SNB-19 CNS = test system: SNB-19 CNS
SK-MEL-5 melanoma = test system: SK-MEL-5 melanoma
MDA-MB-231 breast = test system: MDA-MB-231 breast
TK-10 renal = test system: TK-10 renal
SF-295 CNS = test system: SF-295 CNS
MDA-MB-435 = test system: MDA-MB-435
HCT-116 colon = test system: HCT-116 colon
A498 renal = test system: A498 renal
MOLT-4 leukemia = test system: MOLT-4 leukemia
DU-145 prostate = test system: DU-145 prostate
HS 578T breast = test system: HS 578T breast
BT-549 breast = test system: BT-549 breast
OVCAR-8 ovarian = test system: OVCAR-8 ovarian
NCI-H23 lung = test system: NCI-H23 lung
SK-OV-3 ovarian = test system: SK-OV-3 ovarian
UACC-62 melanoma = test system: UACC-62 melanoma
T-47D breast = test system: T-47D breast
SN12C renal = test system: SN12C renal
EKVX NSCLC = test system: EKVX NSCLC
HOP-62 NSCLC = test system: HOP-62 NSCLC
OVCAR-3 ovarian = test system: OVCAR-3 ovarian
OVCAR-5 ovarian = test system: OVCAR-5 ovarian
SF-268 CNS = test system: SF-268 CNS
RXF 393 renal = test system: RXF 393 renal
NCI-H522 lung = test system: NCI-H522 lung
RPMI-8226 leukemia = test system: RPMI-8226 leukemia

SMILES: COc1cccc(CCCNC(=O)Cc2ccccc2CO)c1
- TGI (CAKI-1 renal): > 100 µM
- TGI (HOP-92 NSCLC): > 100 µM
- TGI (U251 CNS): > 100 µM
- TGI (SK-MEL-2 melanoma): > 100 µM
- TGI (NCI-H460 lung): > 100 µM
- TGI (UO-31 renal): > 100 µM
- TGI (CCRF-CEM leukemia): > 100 µM
- TGI (SNB-75 CNS): > 100 µM
- TGI (MCF7 breast): > 100 µM
- TGI (SF-539 CNS): > 100 µM
- TGI (K-562 leukemia): > 100 µM
- TGI (HL-60(TB) leukemia): > 100 µM
- TGI (UACC-257 melanoma): > 100 µM
- TGI (SR leukemia): > 100 µM
- TGI (MDA-N): > 100 µM
- TGI (KM12 colon): > 100 µM
- TGI (OVCAR-4 ovarian): > 100 µM
- TGI (ACHN renal): > 100 µM
- TGI (HCC-2998 colon): > 100 µM
- TGI (MALME-3M melanoma): > 100 µM
- TGI (A549 NSCLC): > 100 µM
- TGI (M14 melanoma): > 100 µM
- TGI (LOX IMVI melanoma): > 100 µM
- TGI (NCI-H226 lung): > 100 µM
- TGI (NCI/ADR-RES ovarian): > 100 µM
- TGI (COLO 205 colon): > 100 µM
- TGI (IGROV1 ovarian): > 100 µM
- TGI (786-0 renal): > 100 µM
- TGI (PC-3 prostate): > 100 µM
- TGI (SW-620 colon): > 100 µM
- TGI (HT29 colon): > 100 µM
- TGI (HCT-15 colon): > 100 µM
- TGI (SK-MEL-28 melanoma): > 100 µM
- TGI (SNB-19 CNS): > 100 µM
- TGI (SK-MEL-5 melanoma): > 100 µM
- TGI (MDA-MB-231 breast): > 100 µM
- TGI (TK-10 renal): > 100 µM
- TGI (SF-295 CNS): > 100 µM
- TGI (MDA-MB-435): > 100 µM
- TGI (HCT-116 colon): > 100 µM
- TGI (A498 renal): > 100 µM
- TGI (MOLT-4 leukemia): > 100 µM
- TGI (DU-145 prostate): > 100 µM
- TGI (HS 578T breast): > 100 µM
- TGI (BT-549 breast): > 100 µM
- TGI (OVCAR-8 ovarian): > 100 µM
- TGI (NCI-H23 lung): > 100 µM
- TGI (SK-OV-3 ovarian): > 100 µM
- TGI (UACC-62 melanoma): > 100 µM
- TGI (T-47D breast): > 100 µM
- TGI (SN12C renal): > 100 µM
- TGI (EKVX NSCLC): > 100 µM
- TGI (HOP-62 NSCLC): > 100 µM
- TGI (OVCAR-3 ovarian): > 100 µM
- TGI (OVCAR-5 ovarian): > 100 µM

SMILES: C=CCNC1=C2C[C@@H](C)C[C@@H](OC)[C@H](OC(=O)CCN(C)C)[C@H](C)/C=C(\C)[C@@H](OC(N)=O)[C@H](OC)/C=C\C=C(/C)C(=O)NC(=CC1=O)C2=O
- TGI (CAKI-1 renal): 45 µM
- TGI (HOP-92 NSCLC): 29.2 µM
- TGI (U251 CNS): 21.1 µM
- TGI (SK-MEL-2 melanoma): 12.2 µM
- TGI (NCI-H460 lung): 16.1 µM
- TGI (SF-268 CNS): 29.4 µM
- TGI (RXF 393 renal): 11.7 µM
- TGI (UO-31 renal): 27.1 µM
- TGI (CCRF-CEM leukemia): > 55.3 µM
- TGI (SNB-75 CNS): 0.741 µM
- TGI (MCF7 breast): 14.9 µM
- TGI (SF-539 CNS): 16.8 µM
- TGI (NCI-H522 lung): 17.3 µM
- TGI (K-562 leukemia): > 43.7 µM
- TGI (HL-60(TB) leukemia): 11.7 µM
- TGI (UACC-257 melanoma): 16.7 µM
- TGI (SR leukemia): > 32.5 µM
- TGI (MDA-N): 14.3 µM
- TGI (KM12 colon): 1.98 µM
- TGI (OVCAR-4 ovarian): 26.7 µM
- TGI (ACHN renal): 22.2 µM
- TGI (HCC-2998 colon): 0.752 µM
- TGI (MALME-3M melanoma): 19.2 µM
- TGI (A549 NSCLC): 17.4 µM
- TGI (M14 melanoma): 20.1 µM
- TGI (LOX IMVI melanoma): 11.2 µM
- TGI (NCI/ADR-RES ovarian): > 80.3 µM
- TGI (COLO 205 colon): 1.23 µM
- TGI (IGROV1 ovarian): 14.5 µM
- TGI (786-0 renal): 21.2 µM
- TGI (PC-3 prostate): 14.3 µM
- TGI (SW-620 colon): > 51.3 µM
- TGI (HT29 colon): 12.8 µM
- TGI (HCT-15 colon): 19.9 µM
- TGI (SK-MEL-28 melanoma): 21.9 µM
- TGI (SNB-19 CNS): 23.1 µM
- TGI (SK-MEL-5 melanoma): 12.7 µM
- TGI (MDA-MB-231 breast): 8.89 µM
- TGI (TK-10 renal): 17.3 µM
- TGI (SF-295 CNS): 12.3 µM
- TGI (MDA-MB-435): 13.2 µM
- TGI (HCT-116 colon): 16.5 µM
- TGI (A498 renal): 21.4 µM
- TGI (MOLT-4 leukemia): > 40.6 µM
- TGI (HS 578T breast): 40.4 µM
- TGI (BT-549 breast): 26.4 µM
- TGI (OVCAR-8 ovarian): 48 µM
- TGI (NCI-H23 lung): 17.1 µM
- TGI (SK-OV-3 ovarian): 2.73 µM
- TGI (UACC-62 melanoma): 11.9 µM
- TGI (T-47D breast): 12.8 µM
- TGI (SN12C renal): 17.9 µM
- TGI (EKVX NSCLC): 22.9 µM
- TGI (HOP-62 NSCLC): 13.4 µM
- TGI (OVCAR-3 ovarian): 3.61 µM
- TGI (OVCAR-5 ovarian): 25.8 µM
- TGI (RPMI-8226 leukemia): > 41.9 µM

SMILES: S=c1[nH]n2c(COc3cc(Cl)c(OCc4nnc5sc(=S)[nH]n45)cc3Cl)nnc2s1
- TGI (CAKI-1 renal): > 100 µM
- TGI (HOP-92 NSCLC): > 100 µM
- TGI (U251 CNS): > 100 µM
- TGI (SK-MEL-2 melanoma): > 100 µM
- TGI (NCI-H460 lung): > 100 µM
- TGI (SF-268 CNS): > 100 µM
- TGI (RXF 393 renal): > 100 µM
- TGI (UO-31 renal): 86.4 µM
- TGI (SNB-75 CNS): > 100 µM
- TGI (MCF7 breast): 40.8 µM
- TGI (SF-539 CNS): > 100 µM
- TGI (NCI-H522 lung): 53.9 µM
- TGI (K-562 leukemia): > 100 µM
- TGI (HL-60(TB) leukemia): > 100 µM
- TGI (UACC-257 melanoma): > 100 µM
- TGI (SR leukemia): > 100 µM
- TGI (MDA-N): > 100 µM
- TGI (KM12 colon): > 100 µM
- TGI (OVCAR-4 ovarian): > 100 µM
- TGI (ACHN renal): > 100 µM
- TGI (HCC-2998 colon): > 100 µM
- TGI (MALME-3M melanoma): > 100 µM
- TGI (A549 NSCLC): > 100 µM
- TGI (M14 melanoma): > 100 µM
- TGI (LOX IMVI melanoma): > 100 µM
- TGI (NCI-H226 lung): > 100 µM
- TGI (NCI/ADR-RES ovarian): > 100 µM
- TGI (COLO 205 colon): > 100 µM
- TGI (IGROV1 ovarian): > 100 µM
- TGI (786-0 renal): > 100 µM
- TGI (PC-3 prostate): > 100 µM
- TGI (SW-620 colon): > 100 µM
- TGI (HT29 colon): > 100 µM
- TGI (HCT-15 colon): > 100 µM
- TGI (SK-MEL-28 melanoma): > 100 µM
- TGI (SNB-19 CNS): > 100 µM
- TGI (SK-MEL-5 melanoma): > 100 µM
- TGI (MDA-MB-231 breast): > 100 µM
- TGI (TK-10 renal): > 100 µM
- TGI (SF-295 CNS): > 100 µM
- TGI (MDA-MB-435): > 100 µM
- TGI (HCT-116 colon): > 100 µM
- TGI (A498 renal): > 100 µM
- TGI (MOLT-4 leukemia): > 100 µM
- TGI (DU-145 prostate): > 100 µM
- TGI (HS 578T breast): > 100 µM
- TGI (BT-549 breast): > 100 µM
- TGI (OVCAR-8 ovarian): > 100 µM
- TGI (NCI-H23 lung): > 100 µM
- TGI (SK-OV-3 ovarian): > 100 µM
- TGI (UACC-62 melanoma): 83.9 µM
- TGI (T-47D breast): > 100 µM
- TGI (SN12C renal): > 100 µM
- TGI (EKVX NSCLC): > 100 µM
- TGI (HOP-62 NSCLC): > 100 µM
- TGI (OVCAR-3 ovarian): > 100 µM
- TGI (OVCAR-5 ovarian): > 100 µM
- TGI (RPMI-8226 leukemia): > 100 µM
